In US12678446B2 (PFIZER INC., priority 2020, dated 2026):
Where two headings read alike, the source gives them in different places.

Tests used:
[1] = test system: RSV (RSV A2 ECACC, 0709161v); assay: RSV plaque reduction assay; format: cell-based, respiratory syncytial virus
Procedure, shortened: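 Hep-G2 monolayers infected with 100 PFU/well RSV A2 premixed with eight serial compound dilutions (2 h, 37° C.), then kept 2 days under CMC overlay with compound in DMEM/2% FBS. Plaques immunostained (HRP/TrueBlue) and counted; % infection versus virus control gives EC50, mean of at least two experiments, rounded.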

Hep-G2 cells = assay: cell toxicity CC50; format: cell-based; details: mean of at least two experiments, read-out: Cell Cytotoxicity CC50
[2] = RSV A2 in Hep-G2 cells; mean of at least two experiments unless noted (n = 1); read-out: RSV A2 Plaque EC50
[3] = read-out: RSV A2 Plaque EC50; RSV A2 in Hep-G2 cells; mean of at least two experiments unless noted (n = 1)

| Compound | EC50 [1, 2] | CC50 (Hep-G2 cells) | EC50 [1, 3] |
| --- | --- | --- | --- |
| (5R)-2-[2-Fluoro-4- (hydroxymethyl)phe- nyl]-N-[(3S)-9- fluoro-2-oxo-5- phenyl-1,3-dihydro- 1,4-benzodiazepin-3- yl]-5-methyl-6,7- dihydro-5H- pyrazolo[5,1- b][1,3]oxazine-3- carboxamide [Example 153] | 0.063 µM | > 25 µM | – |
| N-[(3S)-9-fluoro-2- oxo-5-phenyl-1,3- dihydro-1,4- benzodiazepin-3-yl]- 2-(2-fluorophenyl)- 6-(methoxymethyl)- 6,7-dihydro-5H- pyrazolo[5,1- b][1,3]oxazine-3- carboxmaide [Example 113] | 0.053 µM | > 19.4 µM | – |
| N-[(3S)-9-fluoro-2- oxo-5-phenyl-1,3- dihydro-1,4- benzodiazepin-3-yl]- 2-(2-fluorophenyl)- 6-(pyrrolidin-1- ylmethyl)-6,7- dihydro-5H- pyrazolo[5,1- b][1,3]oxazine-3- carboxamide [Example 182] | 0.078 µM | 20.1 µM | – |
| O=C(N[C@H]1N=C(c2ccccc2)c2cccc(F)c2NC1=O)c1c(-c2c(F)cccc2F)nn2c1OC(CO)CC2 (single isomer, unassigned) [Example 189-2, (5S*)-2-(2,6-Difluorophenyl)-N-[(3S)-9-fluoro-2-oxo-5-phenyl-1,3-dihydro-1,4-benzodiazepin-3-yl]-5-(hydroxymethyl)-6,7-dihydro-5H-pyrazolo[5,1-b][1,3]oxazine-3-carboxamide] | – | > 25 µM | 0.072 µM |
| (5R)-N-[(3S)-9- fluoro-2-oxo-5- phenyl-1,3-dihydro- 1,4-benzodiazepin-3- yl]-5-methyl-2-(1- propan-2-ylpyrazol- 4-yl)-6,7-dihydro- 5H-pyrazolo[5,1- b][1,3]oxazine-3- carobxamide [Example 112] | 0.05 µM | > 25 µM | – |
| (5R)-N-[(3S)-9- fluoro-2-oxo-5- phenyl-1,3-dihydro- 1,4-benzodiazepin-3- yl]-5-methyl-2-[1- (oxan-4-yl)pyrazol- 4-yl]-6,7-dihydro- 5H-pyrazolo[5,1- b][1,3]oxazine-3- carboxamide [Example 111] | 0.064 µM | > 25 µM | – |
| O=C(N[C@H]1N=C(c2ccccc2)c2cccc(F)c2NC1=O)c1c(-c2ccccc2F)nn2c1OC(CO)CC2 (stereo partly drawn) [Example 123, N-[(3S)-9-Fluoro-2-oxo-5-phenyl-1,3-dihydro-1,4-benzodiazepin-3-yl]-2-(2-fluorophenyl)-5-(hydroxymethyl)-6,7-dihydro-5H-pyrazolo[5,1-b][1,3]oxazine-3-carboxamide] | 0.079 µM | > 25 µM | – |
| O=C(N[C@H]1N=C(c2ccccc2)c2cccc(F)c2NC1=O)c1c(-c2ccccc2F)nn2c1OC(CO)CC2 (single isomer, unassigned) [Example 190-2, (5S*)-2-(2-Fluorophenyl)-5-(hydroxymethyl)-N-[(3S)-9-fluoro-2-oxo-5-phenyl-1,3-dihydro-1,4-benzodiazepin-3-yl]-6,7-dihydro-5H-pyrazolo [5,1-b][1,3]oxazine-3-carboxamide] | – | > 25 µM | 0.154 µM |
| 2-[2-Fluoro-4- (hydroxymethyl)phe- nyl]-N-[(3S)-9- fluoro-2-oxo-5- phenyl-1,3-dihydro- 1,4-benzodiazepin-3- yl]-6,7-dihydro-5H- pyrazolo[5,1- b][1,3]oxazine-3- carboxamide [Example 134] | 0.083 µM | > 25 µM | – |
